Experimental data reported in US20050164323A1, “Methods of treating asthma” (Wyeth, priority 2003, published 2005).
Entries after “also recorded” stand apart in the source; their conditions may differ. Non-standard residues stand in square brackets, D forms with d. Residues, ends and D or L forms follow the SMILES beside them. pS = N[C@@H](COP(=O)(O)O)C(=O)O

Legend:
Format in all cases: biochemical
PKC-θ KD [1] = molecular target: T1, PKC-θ KD (Homo sapiens, UniProt Q04759); assay: HPLC assay: thio effect with ATPγS and product inhibition with ADP; settings: for pattern / Ki: product inhibition; for appKm / rate: peptide1 used in assay
T1 construct: PKC-θ KD (amino acid residues 362 to 706) was cloned into a pET16b expression vector; hexa-histidine (C); Met-Gly (non-native N-terminal residues) (N); made in house; host or cells: E. coli BL21-DE3 (pET16b)

PKC-θ KD [2] = molecular target: T1, PKC-θ KD; assay: coupled PK/LDH assay: steady-state kinetics, product and dead-end inhibition of PKC-θ KD; settings: for substrate inhibition: high peptide concentrations
PKC-θ KD [3] = molecular target: T1, PKC-θ KD; assay: solvent viscosity studies (sucrose, Ficoll 400) on steady state kinetic parameters; settings: from viscosity analysis
Experimental: Next, solvent viscosity studies were performed. Steady state kinetic parameters were determined in the buffer described above for the enzyme kinetics assays containing varied sucrose (0-35%) or Ficoll 400 (0-8%). Relative solvent viscosities (η^ref) were determined in triplicate relative to 25 mM HEPES pH 7.5, 10 mM MgCl2, 2 mM DTT and 100 mM NaCl at 25° C. using an Ostwald viscometer. Buffer with no viscogen is indicated with a superscript of 0. The coupling enzyme system was unaffected by the presence of these viscogens. Thio effect studies with ATPγS and product inhibition studies with ADP were analyzed on a Hewlett Packard series 1100 HPLC using a Phenomenex Auga […] C18 124 A^0 50 mm×4.60 […] column (00B-4299-E0). Phosphorylated peptide was separated from non-phosphorylated peptide using a gradient of 0% to 100% 20 mM phosphate pH 8.8/acetonitrile (50/50). The fluorescein-labeled peptide was detected by excitation at 485 nm and monitoring the fluorescence emission at 530 nm.
To determine if the chemical step is the lone contributor to the rate of the reaction, the effect of solvent viscosity on the steady state kinetic parameters for PKC-θ was determined. Two types of viscogens were employed in this study, the microviscogen sucrose and the macroviscogen Ficoll-400. […]

[4] = dead-end inhibition against peptide 1 at saturating ATP (AMP-PNP up to 2.0 mM)
[5] = dead-end inhibition, varied substrate ATP, 100 mM NaCl
[6] = substrate inhibition, fit to equation (2), saturating ATP, read-out: Ki peptide
[7] = varied peptide substrate, saturating ATP
[8] = varied substrate peptide3, saturating ATP, 100 mM NaCl, read-out: Kis

T1 sequence (Q04759 with tags, fused parts or gaps): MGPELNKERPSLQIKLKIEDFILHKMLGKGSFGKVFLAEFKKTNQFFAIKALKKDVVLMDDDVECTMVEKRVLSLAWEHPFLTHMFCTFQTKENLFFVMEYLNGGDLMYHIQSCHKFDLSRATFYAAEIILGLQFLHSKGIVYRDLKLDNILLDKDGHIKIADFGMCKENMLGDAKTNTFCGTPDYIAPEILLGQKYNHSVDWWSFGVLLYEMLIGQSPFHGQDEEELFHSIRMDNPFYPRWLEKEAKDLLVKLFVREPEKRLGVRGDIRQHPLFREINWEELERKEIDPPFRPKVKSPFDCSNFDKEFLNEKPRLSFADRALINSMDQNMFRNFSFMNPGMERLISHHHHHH

Q: `Nc1ncnc2c1ncn2[C@@H]1O[C@H](COP(=O)(O)OP(=O)(O)O)[C@@H](O)[C@H]1O` [ADP] was tested. Which “inhibition pattern in words” value (PKC-θ KD [1]; against ATP at saturating peptide 1) did it give?
A: competitive inhibitor; also recorded: competitive pattern

Q: What about the “inhibition pattern in words” value (PKC-θ KD [1]; against peptide 1 at non-saturating ATP (0.1 mM)) of the same molecule?
A: non-competitive pattern

Q: What about the “inhibition pattern in words” value (PKC-θ KD [1]; against peptide 1 at saturating ATP) of the same molecule?
A: no inhibition observed

Q: And the pattern (PKC-θ KD [1]; varied substrate ATP, saturating peptide 1, 100 mM NaCl)?
A: c (c, competitive)

Q: What about the Ki (PKC-θ KD [1]; varied substrate ATP, saturating peptide 1, 100 mM NaCl, read-out: Kis) of the same molecule?
A: 291 µM

Q: What about the pattern (PKC-θ KD [1]; varied substrate peptide1, ATP held at 0.1 mM, 100 mM NaCl) of the same molecule?
A: nc (nc, noncompetitive)

Q: And the Ki (PKC-θ KD [1]; varied substrate peptide1, ATP held at 0.1 mM, 100 mM NaCl, read-out: Kii)?
A: 200 µM

Q: What about the Ki (PKC-θ KD [1]; varied substrate peptide1, ATP held at 0.1 mM, 100 mM NaCl, read-out: Kis) of the same molecule?
A: 494 µM

Q: With `Nc1ncnc2c1ncn2[C@@H]1O[C@H](COP(=O)(O)OP(=O)(O)NP(=O)(O)O)[C@@H](O)[C@H]1O` [AMP-PNP] as the molecule, how does the “inhibition pattern in words” value (PKC-θ KD [2]; dead-end inhibition against ATP) read?
A: competitive inhibitor

Q: And the “inhibition pattern in words” value (PKC-θ KD [2]; [4])?
A: no observed inhibition

Q: What about the pattern (PKC-θ KD [2]; [5]) of the same molecule?
A: c (c, competitive)

Q: What about the Ki (PKC-θ KD [2]; dead-end inhibition, varied substrate ATP, 100 mM NaCl, read-out: Kis) of the same molecule?
A: 228 µM

Q: Which “appKm ATP” value (PKC-θ KD [2]; 0 mM NaCl, 0.2 mM peptide1) does the source give for `Nc1ncnc2c1ncn2[C@@H]1O[C@H](COP(=O)(O)OP(=O)(O)OP(=O)(O)O)[C@@H](O)[C@H]1O` [ATP, adenosine triphosphate] here?
A: 25 ± 5 µM

Q: What about the kcat (PKC-θ KD [2]; 100 mM NaCl, fit to equation (1)) of the same molecule?
A: 22 ± 1 s⁻¹

Q: What about the kcat (PKC-θ KD [2]; 250 mM NaCl, fit to equation (1)) of the same molecule?
A: 24 ± 1 s⁻¹

Q: What about the “ATP hydrolysis slower in absence of peptide substrate than when peptide is present” value (PKC-θ KD [2]; no peptide vs peptide present) of the same molecule?
A: 110 times

Q: And the kcat (PKC-θ KD [2]; varied ATP, peptide1 present)?
A: 18 s⁻¹

Q: Which results are given for `Nc1ncnc2c1ncn2[C@@H]1O[C@H](COP(=O)(O)OP(=O)(O)OP(O)(O)=S)[C@@H](O)[C@H]1O` [ATPγS]?
A: ratio ATP/ATPγS of appKm (PKC-θ KD [1]; 100 mM NaCl): 2.1; ratio ATP/ATPγS of rate (thio effect) (PKC-θ KD [1]; 100 mM NaCl): 112; appKm (PKC-θ KD [1]; 100 mM NaCl): 120 ± 9 µM; rate (PKC-θ KD [1]; 100 mM NaCl): 1.6 ± 0.1 peak area/(reaction time in minutes)([enzyme] nM); ratio ATP/ATPγS of appKm (PKC-θ KD [1]; 250 mM NaCl): 1.8; ratio ATP/ATPγS of rate (thio effect) (PKC-θ KD [1]; 250 mM NaCl): 146; appKm (PKC-θ KD [1]; 250 mM NaCl): 130 ± 5 µM; rate (PKC-θ KD [1]; 250 mM NaCl): 1.3 ± 0.1 peak area/(reaction time in minutes)([enzyme] nM)

Q: How did the Ki (PKC-θ KD [2]; 0 mM NaCl, read-out: substrate inhibition) turn out when `CC(C)C[C@H](NC(=O)[C@H](CO)NC(=O)CNC(=O)[C@H](CCCCN)NC(=O)[C@H](CCCNC(=N)N)NC(=O)[C@H](C)NC(=O)[C@@H](N)Cc1ccccc1)C(=O)N[C@@H](CCCNC(=N)N)C(=O)N[C@@H](CCC(N)=O)C(=O)O` [peptide1] (H-FARKGSLRQ-OH) was run?
A: 129 µM

Q: And the Ki (PKC-θ KD [2]; 50 mM NaCl, substrate inhibition, read-out: Ki peptide1)?
A: 201 ± 85 µM

Q: And the Ki (PKC-θ KD [2]; 100 mM NaCl, substrate inhibition, read-out: Ki peptide1)?
A: > 2000 µM

Q: What about the Ki (PKC-θ KD [2]; [6]) of the same molecule?
A: > 2000 µM

Q: Which results are given for `CC(C)C[C@H](NC(=O)[C@H](CO)NC(=O)CNC(=O)[C@H](CCCCN)NC(=O)[C@H](CCCNC(=N)N)NC(=O)[C@H](C)NC(=O)[C@H](Cc1ccccc1)NC(=O)[C@@H](N)CCCNC(=N)N)C(=O)N[C@@H](CCCNC(=N)N)C(=O)N[C@@H](CCC(N)=O)C(=O)N[C@@H](CCCCN)C(=O)N[C@@H](CC(N)=O)C(=O)N[C@H](C(=O)O)C(C)C` [peptide2] (H-RFARKGSLRQKNV-OH; N-terminus and C-terminus assumed)?
A: substrate inhibition (PKC-θ KD [2]): observed; Ki (PKC-θ KD [2]; [6]): 306 ± 57 µM; appKm (PKC-θ KD [2]; [7]): 4.3 ± 0.8 µM; appKm (PKC-θ KD [2]; varied peptide substrate, saturating ATP, listed as peptide 2): 4.3 µM

Q: Which results are given for `CC(C)C[C@H](NC(=O)[C@H](C)NC(=O)CNC(=O)[C@H](CCCCN)NC(=O)[C@H](CCCNC(=N)N)NC(=O)[C@H](C)NC(=O)[C@@H](N)Cc1ccccc1)C(=O)N[C@@H](CCCNC(=N)N)C(=O)N[C@@H](CCC(N)=O)C(=O)O` [peptide5] (H-FARKGALRQ-OH; N-terminus and C-terminus assumed)?
A: inhibition pattern in words (PKC-θ KD [2]; against peptide 3 at saturating ATP): competitive inhibitor; inhibition pattern in words (PKC-θ KD [2]; dead-end inhibition against ATP, listed as Peptide 5): uncompetitive inhibitor; inhibition pattern in words (PKC-θ KD [2]; dead-end inhibition against ATP, listed as peptide 5): un-competitive; inhibition pattern in words (PKC-θ KD [2]; [4]): competitive inhibitor; pattern (PKC-θ KD [2]; [5]): uc (uc, uncompetitive); Ki (PKC-θ KD [2]; dead-end inhibition, varied substrate ATP, 100 mM NaCl, read-out: Kii): 1100 µM; pattern (PKC-θ KD [2]; dead-end inhibition, varied substrate peptide1, saturating ATP, 100 mM NaCl): c (c, competitive); Ki (PKC-θ KD [2]; dead-end inhibition, varied substrate peptide1, saturating ATP, 100 mM NaCl, read-out: Kis): 10 µM; pattern (PKC-θ KD [2]; varied substrate peptide3, saturating ATP, 100 mM NaCl): c (c, competitive); Ki (PKC-θ KD [2]; [8]): 4.4 µM

Q: What does the source list for `CC(C)C[C@H](NC(=O)[C@H](COP(=O)(O)O)NC(=O)CNC(=O)[C@H](CCCCN)NC(=O)[C@H](CCCNC(=N)N)NC(=O)[C@H](C)NC(=O)[C@@H](N)Cc1ccccc1)C(=O)N[C@@H](CCCNC(=N)N)C(=O)N[C@@H](CCC(N)=O)C(=O)O` [phosphopeptide1] (H-FARKG[pS]LRQ-OH)?
A: Ki (PKC-θ KD [2]; varied substrate ATP, peptide3 held at 0.5 mM, 100 mM NaCl, read-out: Kii): 1600 µM; Ki (PKC-θ KD [2]; varied substrate peptide3, ATP held at 0.1 mM, 100 mM NaCl, read-out: Kii): 2000 µM; Ki (PKC-θ KD [2]; varied substrate peptide3, saturating ATP, 100 mM NaCl, read-out: Kii): 1200 µM; Ki (PKC-θ KD [2]; [8]): 1700 µM

Q: “LKRSLSEM [peptide3, substrate derived from the phosphorylation site in serum response factor]” was tested. Which substrate inhibition (PKC-θ KD [2]) did it give?
A: not observed

Q: What about the appKm (PKC-θ KD [2]; [7]) of the same molecule?
A: 420 ± 21 µM

Q: What about the kcat (PKC-θ KD [2]; [7]) of the same molecule?
A: 21 ± 1 s⁻¹

Q: What about the appKm (PKC-θ KD [2]; varied peptide substrate, saturating ATP, listed as Peptide 3) of the same molecule?
A: 420 µM

Q: And the stickiness of substrate (PKC-θ KD [3])?
A: not sticky

Q: Which results are given for “RTPKLARQASIELPSM [peptide4, substrate derived from the phosphorylation site in lymphocyte-specific protein-1]”?
A: substrate inhibition (PKC-θ KD [2]): not observed; appKm (PKC-θ KD [2]; [7]): 240 ± 16 µM; kcat (PKC-θ KD [2]; [7]): 14 ± 1 s⁻¹; appKm (PKC-θ KD [2]; varied peptide substrate, saturating ATP, listed as peptide 4): 240 µM
